Where “and” joins values, the source holds several entries; their conditions need not be identical. Identical values can stand only once.
Tests used:
Details in all cases: incubation time: 72 h
MDA-MB-436 [1] = test: drug sensitivity score (DSS), CellTiter-Blue viability (DSS (AUC-based score)); higher = stronger viability inhibition; extreme values may be limits of the assay
Outline: (§1)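 Compound was arrayed in 384-well plates as a 5- or 9-concentration series, and 20 µl of breast cancer cell suspension was seeded on top. After 72 h, each well received 2.5 µl CellTiter-Blue for 2 h at 37 °C before fluorescence reading at 560/590 nm. Per-plate normalisation used 0.1 % DMSO and a positive kill control, and the area under the fitted dose-response curve gave the drug sensitivity score.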

Hs578T [2] = test: as above
Outline: as §1

HCC1937 [3] = test: as above
Outline: as §1

CAL-148 = test: normalised viability (% of control), CellTiter-Blue; higher = more viable cells (about 100 = DMSO control)
Outline: (§2)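 Plates were quality-checked by Z'-factor and normalised to vehicle (100) and a positive kill control (0). The underlying assay incubated breast cancer cell lines for 72 h on 384-well plates with compound, then added 2.5 µl CellTiter-Blue for 2 h at 37 °C and read at 560/590 nm. The value is normalised viability at a single listed concentration of the series.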

CAL-120 = test: as above
Outline: as §2

MDA-MB-453 [4] = test: as above
Outline: as §2

CAL-51 = test: as above
Outline: as §2

BT-549 = test: as above
Outline: as §2

MDA-MB-436 [5] = test: as above
Outline: as §2

HDQ-P1 [6] = test: as above
Outline: as §2

SK-BR-3 = test: as above
Outline: as §2

BT-474 = test: as above
Outline: as §2

MDA-MB-468 = test: as above
Outline: as §2

HCC1599 = test: as above
Outline: as §2

HCC1143 = test: as above
Outline: as §2

MFM-223 = test: as above
Outline: as §2

Hs578T [7] = test: as above
Outline: as §2

HCC1937 [8] = test: as above
Outline: as §2

DU-4475 = test: as above
Outline: as §2

CAL-85-1 = test: as above
Outline: as §2

MDA-MB-231 = test: as above
Outline: as §2

MDA-MB-453 [9] = test: normalised viability (% of control), CellTiter-Blue; higher = more viable cells (about 100 = DMSO control); remark: listed apart in the source
Description: (§3)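 DSRT, CellTiter-Blue viability, 72 h incubation. Signal is normalised to DMSO and benzethonium chloride controls. Value is the normalised response at dose 6.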

HDQ-P1 [10] = test: as above; remark: listed apart in the source
Description: as §3

CCN(CC)CCCC(C)Nc1c2ccc(Cl)cc2nc2ccc(OC)cc12 (stereo not given) [Mepacrine]
drug sensitivity score (MDA-MB-436 [1]): 6.69 and 2.28 | drug sensitivity score (Hs578T [2]): 2.46 and 1.85 | drug sensitivity score (HCC1937 [3]): 9 and 9.95 | normalised viability (CAL-148; 0.297 nM): 118% | normalised viability (CAL-148; 2.97 nM): 110% | normalised viability (CAL-148; 3 nM): 98.7% | normalised viability (CAL-148; 9.9 nM): 129% | normalised viability (CAL-148; 30 nM): 106% | normalised viability (CAL-148; 100 nM): 102% | normalised viability (CAL-120; 0.99 nM): 114% | normalised viability (CAL-120; 10 nM): 102% | normalised viability (CAL-120; 99 nM): 109% | normalised viability (CAL-120; 990 nM): 16.3% | normalised viability (CAL-120; 1000 nM): 89.6% | normalised viability (CAL-120; 10000 nM): 5.76% | normalised viability (MDA-MB-453 [4]; 0.297 nM): 106% | normalised viability (MDA-MB-453 [4]; 2.97 nM): 107% | normalised viability (MDA-MB-453 [4]; 3 nM): 114% | normalised viability (MDA-MB-453 [4]; 9.9 nM): 100% | normalised viability (MDA-MB-453 [4]; 30 nM): 96.7% | normalised viability (MDA-MB-453 [4]; 100 nM): 102% | normalised viability (CAL-51; 0.297 nM): 89.1% | normalised viability (CAL-51; 2.97 nM): 91.4% | normalised viability (CAL-51; 3 nM): 105% | normalised viability (CAL-51; 9.9 nM): 96.2% | normalised viability (CAL-51; 30 nM): 97.8% | normalised viability (CAL-51; 100 nM): 93.3% | normalised viability (BT-549; 0.99 nM): 87% | normalised viability (BT-549; 10 nM): 87.2% | normalised viability (BT-549; 99 nM): 82.2% | normalised viability (BT-549; 990 nM): 37.6% | normalised viability (BT-549; 1000 nM): 88.9% | normalised viability (BT-549; 10000 nM): 17.8% | normalised viability (MDA-MB-436 [5]; 0.99 nM): 109% | normalised viability (MDA-MB-436 [5]; 10 nM): 101% | normalised viability (MDA-MB-436 [5]; 99 nM): 105% | normalised viability (MDA-MB-436 [5]; 990 nM): 33% | normalised viability (MDA-MB-436 [5]; 1000 nM): 81.4% | normalised viability (MDA-MB-436 [5]; 10000 nM): 9.64% | normalised viability (HDQ-P1 [6]; 0.297 nM): 113% | normalised viability (HDQ-P1 [6]; 2.97 nM): 109% | normalised viability (HDQ-P1 [6]; 3 nM): 112% | normalised viability (HDQ-P1 [6]; 9.9 nM): 104% | normalised viability (HDQ-P1 [6]; 30 nM): 113% | normalised viability (HDQ-P1 [6]; 100 nM): 116% | normalised viability (SK-BR-3; 0.99 nM): 100% | normalised viability (SK-BR-3; 10 nM): 110% | normalised viability (SK-BR-3; 99 nM): 104% | normalised viability (SK-BR-3; 990 nM): 27.9% | normalised viability (SK-BR-3; 1000 nM): 101% | normalised viability (SK-BR-3; 10000 nM): 2.49% | normalised viability (BT-474; 0.99 nM): 113% | normalised viability (BT-474; 10 nM): 111% | normalised viability (BT-474; 99 nM): 104% | normalised viability (BT-474; 990 nM): 41.1% | normalised viability (BT-474; 1000 nM): 116% | normalised viability (BT-474; 10000 nM): 2.65% | normalised viability (MDA-MB-468; 0.99 nM): 108% | normalised viability (MDA-MB-468; 10 nM): 104% | normalised viability (MDA-MB-468; 99 nM): 106% | normalised viability (MDA-MB-468; 990 nM): 43.4% | normalised viability (MDA-MB-468; 1000 nM): 94.7% | normalised viability (MDA-MB-468; 10000 nM): 5.97% | normalised viability (HCC1599; 0.99 nM): 105% | normalised viability (HCC1599; 10 nM): 85.5% | normalised viability (HCC1599; 99 nM): 82.1% | normalised viability (HCC1599; 990 nM): 67.3% | normalised viability (HCC1599; 1000 nM): 79.5% | normalised viability (HCC1599; 10000 nM): 30.9% | normalised viability (HCC1143; 0.99 nM): 123% | normalised viability (HCC1143; 10 nM): 93.5% | normalised viability (HCC1143; 99 nM): 114% | normalised viability (HCC1143; 990 nM): 45% | normalised viability (HCC1143; 1000 nM): 96.1% | normalised viability (HCC1143; 10000 nM): 35.5% | normalised viability (MFM-223; 0.99 nM): 107% | normalised viability (MFM-223; 10 nM): 101% | normalised viability (MFM-223; 99 nM): 94.8% | normalised viability (MFM-223; 990 nM): 44.5% | normalised viability (MFM-223; 1000 nM): 100% | normalised viability (MFM-223; 10000 nM): 20.9% | normalised viability (Hs578T [7]; 0.99 nM): 111% | normalised viability (Hs578T [7]; 10 nM): 107% | normalised viability (Hs578T [7]; 99 nM): 118% | normalised viability (Hs578T [7]; 990 nM): 38.5% | normalised viability (Hs578T [7]; 1000 nM): 122% | normalised viability (Hs578T [7]; 10000 nM): 21.6% | normalised viability (HCC1937 [8]; 0.99 nM): 118% | normalised viability (HCC1937 [8]; 10 nM): 108% | normalised viability (HCC1937 [8]; 99 nM): 78.7% | normalised viability (HCC1937 [8]; 990 nM): 15.8% | normalised viability (HCC1937 [8]; 1000 nM): 63.6% | normalised viability (HCC1937 [8]; 10000 nM): 10.7% | normalised viability (DU-4475; 0.297 nM): 112% | normalised viability (DU-4475; 2.97 nM): 88% | normalised viability (DU-4475; 3 nM): 92.6% | normalised viability (DU-4475; 9.9 nM): 101% | normalised viability (DU-4475; 30 nM): 89.1% | normalised viability (DU-4475; 100 nM): 96.9% | normalised viability (CAL-85-1; 0.297 nM): 114% | normalised viability (CAL-85-1; 2.97 nM): 95.7% | normalised viability (CAL-85-1; 3 nM): 94.3% | normalised viability (CAL-85-1; 9.9 nM): 98.9% | normalised viability (CAL-85-1; 30 nM): 88.1% | normalised viability (CAL-85-1; 100 nM): 105% | normalised viability (MDA-MB-231; 0.99 nM): 89.4% | normalised viability (MDA-MB-231; 10 nM): 102% | normalised viability (MDA-MB-231; 99 nM): 81.4% | normalised viability (MDA-MB-231; 990 nM): 8.45% | normalised viability (MDA-MB-231; 1000 nM): 65% | normalised viability (MDA-MB-231; 10000 nM): 7.28% | normalised viability (MDA-MB-453 [9]; 29.7 nM): 103% | normalised viability (MDA-MB-453 [9]; 300 nM): 101% | normalised viability (HDQ-P1 [10]; 29.7 nM): 117% | normalised viability (HDQ-P1 [10]; 300 nM): 109%
